The test system of the experiment is AGS cells (KRAS^G12D). As to the kind of experiment: Detection of cell proliferation in vitro by MTT/MTS method (cell activity experiment). As to conditions: Homo sapiens, AGS, 72 h, AGS cells; MTT/MTS; 3 days of drug treatment; read-out: AGS IC50. Format: cell-based. Summed up:
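After 3-day compound exposure (final DMSO 0.5%), viability of AGS (KRAS G12D) cells, plated 1000/well one day before dosing, was measured at 490 nm following 4 h MTT or MTS incubation. IC50 was fitted from dose–effect curves relative to DMSO-treated wells.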

Molecules are shown by their SMILES.

Results on two compounds are retold here after patent US20240300980A1, “HETEROCYCLIC COMPOUNDS AS KRAS INHIBITOR, AND PREPARATION THEREFOR AND USE THEREOF IN TREATMENT” (SHANGHAI KECHOW PHARMA, INC., priority 2021, published 2024).

By IC50 is commonly meant the concentration that inhibits the measured activity by half.

As to `CCC1CCc2cc(O)cc(-c3ccc4c(NCC5(N(C)C)CCC5)nc(OC[C@@]56CCCN5C[C@H](F)C6)nc4c3F)c21` (stereo partly drawn) [Example 429, 7-(4-(((1-(dimethylamino)cyclobutyl)methyl)amino)-8-fluoro-2-(((2R,7aS)-2-fluorotetrahydro-1H-pyrrolizin-7a(5H)-yl)methoxy)quinazolin-7-yl)-1-ethyl-2,3-dihydro-1H-inden-5-ol], the IC50 came out at 75 nM.

In the case of `C#Cc1c(F)ccc2cc(O)cc(-c3ccc4c(NCC5(N(C)C)CCC5)nc(OC[C@@]56CCCN5C[C@H](F)C6)nc4c3F)c12` [Example 430, 4-(4-(((1-(dimethylamino)cyclobutyl)methyl)amino)-8-fluoro-2-(((2R,7aS)-2-fluorotetrahydro-1H-pyrrolizin-7a(5H)-yl)methoxy)quinazolin-7-yl)-5-ethynyl-6-fluoronaphthalen-2-ol], the IC50 turned out to be 35 nM.
